System: Caco-2 permeability, B->A Papp, LC-MS/MS
Assay: Inhibitors of Bloom's syndrome helicase: Caco-2 Permeability Profiling Assay
Settings: stronger effect = higher value
Source text: Survival of cells and the faithful propagation of the genome depend on elaborate mechanisms of detecting and repairing DNA damage. Treatment of advanced cancer relies on radiation therapy or chemotherapy, which kill cancer cells by causing extensive DNA damage. It is often found, that cancer cells develop resistance to therapy through enhanced activity of DNA repair functions; this has led to an increased interest in developing drugs that interfere with DNA repair, which could sensitize cancer cells to conventional therapy. Bloom syndrome helicase (BLM), is important in resolving abnormal DNA structures formed during replication or homologous recombination. Shutting down the expression of BLM leads to chromosomal instability and higher radiation sensitivity in cultured cells. This permeability assay predicts the in vivo absorption of the lead across the intestinal lining by using a Caco-2 cell line and measuring the lead's […]. […] NIH Chemical Genomics Center [NCGC] NIH Molecular Libraries Probe Production Centers Network [MLPCN] MLSCN Grant: MH087284 PI Name: Dr. Opher Gileadi, Structural Genomics Consortium, University of Oxford, UK
1. […] The T0, LY and T90, LY plates are read by FlexStation 3 at excitation of 485 nm and emission of 535 nm to determine LY permeability. […]

permeability B->A Papp: 1 10^-6 cm/s
Compound: O=C(Nc1ccc(F)c(C(F)(F)F)c1)Nc1nnc(-c2ccncc2)s1
